Tests used:
Assay type in all cases: cell-based
[1] = test system: Acinetobacter baumannii (A. baumannii) 2208 ATCC19606; assay: Bacterial growth inhibition test / MIC calculation; details: MHB, 37° C., growth curves, linear regression, mean ± s.d.
Text: (§1) The bacterial strains methicillin-sensitive Staphylococcus aureus (S. aureus) ATCC 29213, methicillin-resistant Staphylococcus aureus (MRSA) ATCC 43300, Enterococcus faecalis (E. faecalis) ATCC 29212, Escherichia coli (E. coli) ATCC 25922, Acinetobacter baumannii (A. baumannii) 2208 ATCC19606, Pseudomonas aeruginosa (P. aeruginosa) strain PAO1-LAC ATCC 47085, Klebsiella pneumoniae (K. pneumoniae) ATCC 13883 and multidrug-resistant K. pneumoniae (MDR), were obtained from the culture collection of the Oral Health Cooperative Research Centre, The Melbourne Dental School, University of Melbourne, Australia. Bacteria were cultured in Mueller Hinton Broth (MHB) at 37° C. 50 μL of suspensions with the desired concentrations of Se NPs, Se NP-ε-PL or pure ε-PL in PBS solution was added to each well of 96-well microplates, then 50 μL MHB with 2.5×10^6 bacteria/mL were added into each well. The plate was put into an iEMS microplate reader (Pathtech Pty Ltd, Melbourne, Australia) at a temperature of 37° C. to monitor bacterial growth by measuring the absorbance at wavelength of 630 nm for 24 h. Background absorbance values due to the Se NP solutions were subtracted from the measured absorbance values.
(§2) The absorbance values from bacteria growth curves at the time when the stationary phase starts (tsps) were taken and calculated as a percentage of the untreated control (Z=OD5/OD6×100%, where OD5 represents absorbance at tsps of experimental groups and OD6 represents the absorbance at tsps of the negative control group; all absorbance values had the culture medium background values subtracted). Concentration-inhibition curves were plotted with the percentages of absorbance, and linear regression analysis was adopted to determine the MIC at which Z becomes zero.

[2] = test system: Enterococcus faecalis (E. faecalis) ATCC 29212; assay: Bacterial growth inhibition test / MIC calculation; details: MHB, 37° C., growth curves, linear regression, mean ± s.d.
Text: as §1, §2

[3] = test system: Escherichia coli (E. coli) ATCC 25922; assay: Bacterial growth inhibition test / MIC calculation; details: MHB, 37° C., growth curves, linear regression, mean ± s.d.
Text: as §1, §2

[4] = test system: Pseudomonas aeruginosa (P. aeruginosa) strain PAO1-LAC ATCC 47085; assay: Bacterial growth inhibition test / MIC calculation; details: MHB, 37° C., growth curves, linear regression, mean ± s.d.
Text: as §1, §2

[5] = test system: methicillin-sensitive Staphylococcus aureus (S. aureus) ATCC 29213; assay: Bacterial growth inhibition test / MIC calculation; details: MHB, 37° C., growth curves, linear regression, mean ± s.d.
Text: as §1, §2

[6] = test system: human dermal fibroblast cells (HDF); assay: Cell Counting Kit-8 (CCK-8) cytotoxicity assay; details: all tested concentrations (1-50 μg/mL), 24 h
Protocol: Two methods were adopted to test the cytotoxicity of Se NP-ε-PL, namely the Cell Counting Kit-8 (CCK-8) assay and Lactate Dehydrogenase (LDH) assay.
Cytotoxicity of Se NPs, Se NP-ε-PL and pure ε-PL was tested using human dermal fibroblast cells (HDF). HDF were cultured in Dulbecco's modified Eagle's medium (DMEM) with 10% foetal bovine serum (FBS), 100 U·mL^−1 penicillin and 100 μg·mL^−1 streptomycin at 37° C. in a humidified atmosphere of 5% CO2. For the CCK-8 tests, filter sterilised Se NPs, Se NP-ε-PL and pure ε-PL in PBS suspensions were diluted in PBS to concentrations of 20, 50, 100, 200, 500 and 1000 μg/mL and 5% (v/v) of these diluted solutions were added to DMEM to give final concentrations of Se NPs of 1, 2.5, 5, 10, 25 and 50 μg/mL The control groups involved DMEM as the negative control and DMEM with 10% dimethyl sulfoxide (DMSO) as the positive control, according to ISO 10993-12 standard. […] 100 μL medium from each well was then transferred to new 96-well plates and the absorbance of each well was tested using a microplate reader (M200 PRO, Tecan) at a wavelength of 450 nm. The cell viability (X) of each experimental group was calculated based on 5 samples according the following formula: […]
where OD1 represents the mean absorbance of experimental groups and the positive control group and OD2 represents the mean absorbance of the negative control group.

[7] = test system: all tested bacterial strains (S. aureus, E. faecalis, E. coli, A. baumannii, P. aeruginosa, K. pneumoniae); assay: Membrane disruption test (PI-positive cells); details: 6.25 or 12.5 μg/ml, 90 min
Protocol: The bacterial strains methicillin-sensitive S. aureus ATCC 29213, E. faecalis ATCC 29212, E. coli ATCC 25922, A. baumannii 2208 ATCC19606, P. aeruginosa strain PAO1-LAC ATCC 47085 and K. pneumoniae ATCC 13883 were cultured in MHB at 37° C. 50 μL of different concentrations of Se NPs, Se NP-ε-PL or pure ε-PL in PBS solution was added into each well of 96-well microplates. 50 μL MHB with 2.5×10^6 cells/mL bacteria was then added into each well. 50 μL MHB with 2.5×10^6 cells/mL bacteria was added to 50 μL PBS to act as untreated control. After 90 min incubation at 37° C., 0.1% of a green-fluorescent nucleic acid stain (SYTO 9, Thermo Fisher Scientific) and 0.1% of propidium iodide (PI) were added to each well and incubated again for 5 min. SYTO 9 can stain both live and dead Gram-positive and Gram-negative bacteria. PI is a red-florescent nuclear and chromosome counterstain but is not permeant to cells with intact plasma membranes. A Cell Lab Quanta SC MPL flow cytometer (Beckman Coulter) was adopted to measure the percent of PI-positive cells. Two independent tests were performed, and two parallel samples were used in each test for each variation.

Substance: ε-poly-L-lysine [ε-PL]
- MIC [1]: 21.6 ± 7.0 µg/mL
- MIC [2]: 27.1 ± 2.2 µg/mL
- MIC [3]: 13.2 ± 0.5 µg/mL
- MIC [4]: 9.5 ± 3.6 µg/mL
- MIC [5]: 7.5 ± 1.0 µg/mL
- toxicity to HDF cells (cell viability, CCK-8) [6]: no significant toxicity
- cell membrane disruption (PI positive cells) [7]: membrane disruption effects

Source: US20220339187A1, “ANTIMICROBIAL PEPTIDE-SELENIUM NANOPARTICLES” (The University of Melbourne, priority 2019, published 2022)
